Test [1] concerns the target T1, SARS-CoV-2 PLpro (nsp3 1564–1878) (Severe acute respiratory syndrome coronavirus 2, UniProt P0DTD1). The test is described as follows: biochemical. Further details: FRET-quenched peptide (Pro3) cleavage by PLpro, 10 min pre-incubation, slope over 20 min, normalised to no-compound control. Conditions: high concentration screen, read-out: % of control remaining.
The target in test [2] is T1, SARS-CoV-2 PLpro (nsp3 1564–1878). The test is described as follows: biochemical. On the set-up: FRET-quenched peptide (Pro3) cleavage by PLpro, 10 min pre-incubation, slope over 20 min, normalised to no-compound control. The settings on record: low concentration screen, read-out: % of control remaining.

Each structure is given as a SMILES string. Where a name gives a salt, the structure may show the parent alone. Read-outs that look alike come from different tables or passages of the source. Where a SMILES comes first, the peptide text is derived from it. [ ]: non-standard residue; d: D form. dPhe(4-Cl) = N[C@H](Cc1ccc(Cl)cc1)C(=O)O; d2Nal = N[C@H](Cc1ccc2ccccc2c1)C(=O)O; Lys(iPr) = CC(C)NCCCC[C@H](N)C(=O)O; NMeY = CN[C@@H](Cc1ccc(O)cc1)C(=O)O; d3Pal = N[C@H](Cc1cccnc1)C(=O)O

As to `Nc1ccc(O)c(C(=O)O)c1` [5-Aminosalicylic acid], the remaining activity at 3.75 µM in test [1] (Well no.=2121) was determined as 104%. The remaining activity at 1.25 µM in test [2] (Well no.=2121) is 105%.

In the case of `CC(COc1ccccc1)N(CCCl)Cc1ccccc1` (stereo not shown) [Phenoxybenzamine.HCl], the remaining activity at 3.75 µM in test [1] (Well no.=1761) worked out at 101%. Also, in test [2] (Well no.=1761), the remaining activity at 1.25 µM was found to be 102%.

`CC(C)(Oc1ccc(CCNC(=O)c2ccc(Cl)cc2)cc1)C(=O)O` [Bezafibrate]: the remaining activity at 3.75 µM in test [1] (Well no.=1660) was 97.5%. Also, the remaining activity at 1.25 µM in test [2] (Well no.=1660) is 98.3%.

Take `CC(C)[C@@]1(NC(=O)[C@@H]2C[C@@H]3c4cccc5[nH]cc(c45)C[C@H]3N(C)C2)O[C@@]2(O)[C@@H]3CCCN3C(=O)[C@H](Cc3ccccc3)N2C1=O` [Dihydroergocristine methanesulfonate]: the remaining activity at 3.75 µM in test [1] (Well no.=404) was found to be 101%. In test [2] (Well no.=404), the remaining activity at 1.25 µM worked out at 102%.

For `O=C(O)/C(S)=C/c1c[nH]c2ccc(F)cc12` [PD 151746], the remaining activity at 3.75 µM in test [1] (Well no.=8812) stood at 92.9%. Besides, the remaining activity at 1.25 µM in test [2] (Well no.=8812) worked out at 92.8%.

As for `Cc1cc(Cc2cc(C)cc(C(C)(C)C)c2O)c(O)c(C(C)(C)C)c1` [GERI-BP002-A], the remaining activity at 3.75 µM in test [1] (Well no.=3701) was 101%. In test [2] (Well no.=3701), the remaining activity at 1.25 µM is 97.3%.

For `CCCCCCCOc1cc2c(cc1/C(C)=C/c1ccc(C(=O)O)cc1)C(C)(C)CCS2(=O)=O` [4-{(1E)-2-[7-(heptyloxy)-4,4-dimethyl-1,1-dioxido-3,4-dihydro-2H-thiochromen-6-yl]-1-propenyl}benzoic acid], the remaining activity at 3.75 µM in test [1] (Well no.=5553) came out at 105%. For the same compound, in test [2] (Well no.=5553), the remaining activity at 1.25 µM is 103%.

Turning to `CC(=O)Nc1ccc(NC(=S)NC(=O)c2ccc(C(C)(C)C)cc2)cc1` [Tenovin-1], in test [1] (Well no.=4784), the remaining activity at 3.75 µM came out at 96.5%. For the same compound, the remaining activity at 1.25 µM was found to be 95.1% in test [2] (Well no.=4784) and 98.9% in test [2] (Well no.=7160).

For `Cc1nc2ccccn2c(=O)c1CCN1CCC(C(=O)c2ccc(F)cc2)CC1` [Pirenperone], in test [1] (Well no.=1359), the remaining activity at 3.75 µM worked out at 102%. The remaining activity at 1.25 µM in test [2] (Well no.=1359) came to 101%.

`CCCCCCCC/C=C\CCCCCCCCCCCCC(=O)O` [14(Z)-Tricosenoic acid]: the remaining activity at 3.75 µM in test [1] (Well no.=4498) was 93.7%. In addition, in test [2] (Well no.=4498), the remaining activity at 1.25 µM was 99.3%.

In the case of `CCc1cnc(N2CCC(c3nc(COc4ccc(-n5cnnn5)cc4)cs3)CC2)nc1` [MBX-2982], the remaining activity at 3.75 µM in test [1] (Well no.=8381) was 99.5%. In addition, the remaining activity at 1.25 µM in test [2] (Well no.=8381) amounted to 102%.

With `C[C@H](NC(=O)Cc1cc(F)cc(F)c1)C(=O)N[C@@H]1C(=O)N(C)c2ccccc2-c2ccccc21` [YO-01027], in test [1] (Well no.=4687), the remaining activity at 3.75 µM was 105%. Moreover, the remaining activity at 1.25 µM in test [2] (Well no.=4687) was determined as 101%.

With `Cc1ccc([N+](=O)[O-])cc1S(=O)(=O)N(C)/N=C/c1cnc2ccc(Br)cn12` [PIK 75], the remaining activity at 3.75 µM in test [1] (Well no.=2993) was determined as 96.1%. For the same compound, in test [2] (Well no.=2993), the remaining activity at 1.25 µM is 96.4%.

For `O=C1Cc2c([nH]c3ccc([N+](=O)[O-])cc23)-c2ccccc2N1` [Alsterpaullone], the results for the remaining activity at 3.75 µM in test [1] (Well no.=255) and in test [1] (Well no.=2314) were 106% and 105%, respectively. The results for the remaining activity at 1.25 µM in test [2] (Well no.=255) and in test [2] (Well no.=2314) were 104% and 101%, respectively.

`COC1=CC(=O)O[C@@H](CCc2ccc3c(c2)OCO3)C1` [Dihydromethysticin]: the remaining activity at 3.75 µM in test [1] (Well no.=3303) is 102%. The remaining activity at 1.25 µM in test [2] (Well no.=3303) is 100%.

As to `CC(C)(Oc1ccc(Cl)cc1)C(=O)O` [Clofibric Acid], the remaining activity at 3.75 µM in test [1] (Well no.=8394) was 81.1%. In addition, the remaining activity at 1.25 µM in test [2] (Well no.=8394) is 87%.

On to `CC(=O)OC[C@@]1(O)C[C@@]23CC[C@@H]4c5ccoc5CC[C@@]4(C)[C@@H]2CC[C@@H]1C3` [Cafestol acetate], for which the remaining activity at 3.75 µM in test [1] (Well no.=3525) stood at 103%. In addition, the remaining activity at 1.25 µM in test [2] (Well no.=3525) came out at 96.8%.

For `CO[C@H]1C[C@@H]2CC[C@@H](C)[C@@](O)(O2)C(=O)C(=O)N2CCCC[C@H]2C(=O)O[C@H]([C@H](C)C[C@@H]2CC[C@H](n3ncnn3)[C@H](OC)C2)CC(=O)[C@H](C)/C=C(\C)[C@@H](O)[C@@H](OC)C(=O)[C@H](C)C[C@H](C)/C=C/C=C/C=C/1C` [42-(2-Tetrazolyl)rapamycin], the remaining activity at 3.75 µM in test [1] (Well no.=7592) turned out to be 91.6%. Also, the remaining activity at 1.25 µM in test [2] (Well no.=7592) is 91%.

For the compound `OC(CN1CCN(c2cccc(Cl)c2)CC1)C(c1ccccc1)c1ccccc1` (stereo not shown) [BRL-15572], the remaining activity at 3.75 µM in test [1] (Well no.=5336) was 94.2%. In addition, in test [2] (Well no.=5336), the remaining activity at 1.25 µM was 94.9%.

For `CN[C@H](CC(C)C)C(=O)N[C@H]1C(=O)N[C@@H](CC(N)=O)C(=O)N[C@H]2C(=O)N[C@H]3C(=O)N[C@H](C(=O)N[C@H](C(=O)O)c4cc(O)cc(O)c4-c4cc3ccc4O)[C@H](O)c3ccc(c(Cl)c3)Oc3cc2cc(c3O[C@@H]2O[C@H](CO)[C@@H](O)[C@H](O)[C@H]2O[C@H]2C[C@](C)(N)[C@H](O)[C@H](C)O2)Oc2ccc(cc2Cl)[C@H]1O` [Vancomycin (hydrochloride)], the remaining activity at 3.75 µM in test [1] (Well no.=7882) was 98.3%. Further, the remaining activity at 1.25 µM in test [2] (Well no.=7882) amounted to 103%.

Take `CNC(=N)NCCC[C@H](N)C(=O)O` [NG-Monomethyl-L-arginine acetate]: in test [1] (Well no.=886), the remaining activity at 3.75 µM was 103%. In addition, the remaining activity at 1.25 µM in test [2] (Well no.=886) is 102%.

Regarding `CCCCCCCCCCCCCCCCOC[C@@H](COP(=O)([O-])OCC[N+](C)(C)C)OC(C)=O` [PAF C16], the remaining activity at 3.75 µM in test [1] (Well no.=4445) is 98.2%. For the same compound, the remaining activity at 1.25 µM in test [2] (Well no.=4445) was 103%.

For `CC[C@H](NC(=O)c1c(C)c(-c2ccccc2)nc2ccccc12)c1ccccc1` [SB-222200], in test [1] (Well no.=7005), the remaining activity at 3.75 µM came to 86.5%. The remaining activity at 1.25 µM in test [2] (Well no.=7005) was determined as 96.1%.

`OC[C@@H](O)[C@@H](O)[C@@H](O)CO` [Ribitol]: the remaining activity at 3.75 µM in test [1] (Well no.=6775) turned out to be 102%. For the same compound, the remaining activity at 1.25 µM in test [2] (Well no.=6775) was 104%.

As to `COc1cc2ncnc(Nc3ccc(Cl)cc3Cl)c2cc1OC` [Ste11 MAPKKK Activation Inhibitor], in test [1] (Well no.=2673), the remaining activity at 3.75 µM is 99.8%. Also, the remaining activity at 1.25 µM in test [2] (Well no.=2673) was found to be 96.8%.

As to `CCCc1ccc(OCC(=O)N(Cc2nc(-c3cccnc3)no2)C(C)C)cc1` [PI-1840], the remaining activity at 3.75 µM in test [1] (Well no.=8718) amounted to 98.4%. Moreover, the remaining activity at 1.25 µM in test [2] (Well no.=8718) came out at 94.8%.

Consider `CNC(=O)Nc1ccc(-c2nc(N3CC4CCC(C3)O4)c3cnn(C4CCC5(CC4)OCCO5)c3n2)cc1` [WYE-125132], for which the remaining activity at 3.75 µM in test [1] (Well no.=4641) came to 104%. Further, the remaining activity at 1.25 µM in test [2] (Well no.=4641) worked out at 99.8%.

Turning to `CC(=O)N[C@H](Cc1ccc2ccccc2c1)C(=O)N[C@H](Cc1ccc(Cl)cc1)C(=O)N[C@H](Cc1cccnc1)C(=O)N[C@@H](CO)C(=O)N(C)[C@@H](Cc1ccc(O)cc1)C(=O)N[C@H](CC(N)=O)C(=O)N[C@@H](CC(C)C)C(=O)N[C@@H](CCCCNC(C)C)C(=O)N1CCC[C@H]1C(=O)N[C@H](C)C(N)=O` [Abarelix] (Ac-[d2Nal][dPhe(4-Cl)][d3Pal]S[NMeY][dN]L[Lys(iPr)]P[dA]-NH2), the remaining activity at 3.75 µM in test [1] (Well no.=6560) was found to be 98.6%. In addition, the remaining activity at 1.25 µM in test [2] (Well no.=6560) worked out at 95.8%.

For the compound `NCCNc1nonc1C(=Nc1ccc(F)c(Br)c1)NO` [IDO-IN-3], in test [1] (Well no.=8693), the remaining activity at 3.75 µM turned out to be 101%. In addition, the remaining activity at 1.25 µM in test [2] (Well no.=8693) turned out to be 107%.
